From patent US10988766B2, “Compositions and methods used in diagnosing and treating colorectal cancer” (Oregon Health & Science University, priority 2017, dated 2021)

Tests used:
Type in all cases: cell-based, human
[1] = tested on: HCT-116 cells reverse transfected with anti-miR-451a; experiment: Chemosensitivity model: cell proliferation (CellTiter-Glo) with SHP2 and RAF inhibitors; conditions: 3.5 uM SHP2-inhibitor, 20 uM RAF-inhibitor, alone or combined; treated 24 hours post transfection
Procedure: HCT-116 cells (American Type Culture Collection) were cultured in McCoy's media supplemented with 10% fetal bovine serum (FBS) and antibiotics. Cells were tested and found negative for mycoplasma contamination before use in the assays described. Cells were reverse transfected with miR-451a-5p mimics or inhibitors with their respective controls (purchased from Life Technologies), using Lipofectamine® RNAiMAX (Invitrogen) per manufacturer's instructions. We report highly efficient transfection (>90%) of mimics and inhibitors in cell culture, as measured by fluorescent miR control. Cells were irradiated in a Shepherd^137 cesium irradiator at a rate of 1.34 cGy min. HCT-116 cells were initially transfected in a six-well plate, then transferred to a 96-well plate 16 hours post-transfection (2000 cells/well). In the chemosensitivity model, HCT-116 cells were treated with SHP2 inhibitor SHP099, 6-([…]-4-methyl-1-piperidinyl)-3-(2,3-dichlorophenyl)-2-pyrazinamine (Cayman Chemical, cat#20000) (3.5 μM), and RAF inhibitor (selective paradox breaker; SelleckChem, PLX7904, N′-[3-[[5-(2-cyclopropyl-5-pyrimidinyl)-1H-pyrrolo[2,3-b]pyridin-3-yl]carbonyl]-2,4-difluorophenyl]-N-ethyl-N-methyl-sulfamide, cat#57964) (20 μM) at 24 hours post transfection. Cell proliferation was analyzed at 48 hours post irradiation, using CellTiter-Glo®, per the manufacturer's instructions.

HCT116 = experiment: Proliferation after radiation and 5-FU treatment; conditions: miR-451a mimic vs control mimic, radiation and 5-FU (5 μM), 48 and 96 hours
Procedure: FIG. 6A is a graph of HCT116 transfected with a miR-451a mimic or a control mimic. Proliferation was analyzed 48 hours after radiation and 5-FU (5 μM) treatment. Mean of triplicate wells is plotted. * indicates P<0.01 on a two-tailed Student's T-test.
FIG. 6B is a graph of HCT116 transfected with a miR-451a mimic or a control mimic. Proliferation was analyzed 96 hours after radiation and 5-FU (5 μM) treatment. Mean of triplicate wells is plotted. * indicates P<0.01 on a two-tailed Student's T-test
(§1) HCT-116 cells were transfected in a 6 well plate with miR-451a-5p mimic or inhibitor, and the corresponding controls from Life Technologies as previously described. Cells were transferred to a 96 well plate 16 hours post-transfection (1000 cells/well). At 24 hours post-transfection the HCT-116 cells were irradiated with 0, 2, or 5 Gy. Cell Titer-Glo and Caspase 3/7 Glo were analyzed at 48 hours and 96 hours post-irradiation, according to manufacturer's instructions.

HCT-116 cells [2] = experiment: Proliferation in 2D culture (Cell Titer-Glo) after transfection and radiation
Description: HCT-116 cells were reverse transfected with miR-451a-5p mimics, inhibitors and their respective controls were purchased from Life Technologies using Lipofectamine RNAiMAX (Invitrogen) according to manufacturer's instructions.
Cells or mice were irradiated on a Shepherd^137 cesium irradiator at a rate of […] 1.34 cGy min. In tumour-targeted radiation experiments, mice were restrained in a lead shield (Brain Tree Scientific) to minimize exposure to the non-tumour areas.
as §1

[3] = tested on: CAB39, EMSY, EREG, and MEX3C mRNA in HCT-116 cells; experiment: qRT-PCR of the miR-451 targets after transfection; conditions: 24 h after transfection
Procedure: FIG. 4C is a plot of the results of qRT-PCR of the miR-451 targets in HCT-116 cells at 24 h after transfection.
This list was narrowed by filtering genes with a known role in human colorectal cancer and/or cellular response to ionizing radiation. […] A miR-Trap assay was used to pull down mRNAs enriched at the RNA induced silencing complex in cells transfected with miR-451a.

HCT-116 cells [4] = experiment: Tumorsphere (3D culture) proliferation assay after transfection and radiation; conditions: miR-451a mimic vs control mimic, 48 hours after radiation
Procedure: (§2) FIG. 2B is a graph showing results where HCT116 were transfected with a miR-451a mimic or a control mimic. Proliferation was analyzed 48 hours after radiation in 3D cultures with the indicated doses. Bars depict mean±s.e.m. of triplicate wells. ** indicates P<0.01 on a two-tailed Student's T-test.
as §2, with “3B” for “2B”, “inhibitor (anti-miR-451a)” for “mimic”, “anti-miR.” for “mimic.”, “culture” for “cultures”
as §1

HCT-116 cells [5] = experiment: Colony formation assay (surviving fraction); conditions: miR-451a mimic vs control mimic, 0, 2 or 5 Gy, colonies counted 12-14 days after plating
Procedure: Cells were transfected with miR-451a-5p mimic or control mimic for 16 hours. Then cells were plated (100 or 200 cells for 0Gy, 200 or 400 cells/well for 2GY and 400 or 800 cells per well for 5Gy) in triplicate in a 6-well plate. Cells were irradiated 4 hours after plating, 0Gy, 2Gy or 5Gy. Two weeks after plating, cells were fixed and stained with crystal violet and colonies were counted. Surviving fraction was calculated based on the colony numbers normalized to the plating efficiency.

[6] = tested on: CAB39, EMSY, EREG, and MEX3C mRNAs; experiment: miR-TRAP / RISC Trap assay; conditions: HCT116 co-transfected with mutant RISC complex plasmid and miR-451a mimic or control mimic
Description: Fold enrichment over pre-IP mRNAs is depicted. Results are representative of two independent experiments.
HCT116 cells were co-transfected with a plasmid coding for a flag-tagged dominant negative […] mutant (Clontech kit #632016) along with a control mimic or miR-451a-5p mimic according to manufacturer instructions. Twenty-four hours later the RNA protein complexes were crosslinked and the RISC complex was immunoprecipitated using an anti-FLAG antibody and RNA was isolated for quantitative real-time PCR of target genes. The fold enrichment was calculated using pre and post IP controls as well as normalization to the control mimic pull-downs.

| Molecule | cell proliferation [1] | responses to 5-FU (proliferation) (HCT116) | proliferation in a 2D culture (HCT-116 cells [2]; miR-451a mimic vs control mimic, 48 hours after radiation) | effect in combination with radiation (HCT-116 cells [2]; on the phenotypes (proliferation, tumorsphere, colony formation), especially at the 5 Gy dose) | target gene expression at the mRNA level [3] | proliferation in a tumorsphere assay (HCT-116 cells [4]) | surviving fraction colony formation (HCT-116 cells [5]) | enrichment of target mRNAs at the RNA induced silencing complex [6] |
| --- | --- | --- | --- | --- | --- | --- | --- | --- |
| CCN(C)S(=O)(=O)Nc1ccc(F)c(C(=O)c2c[nH]c3ncc(-c4cnc(C5CC5)nc4)cc23)c1F [RAF-inhibitor, N′-[3-[[5-(2-cyclopropyl-5-pyrimidinyl)-1H-pyrrolo[2,3-b]pyridin-3-yl]carbonyl]-2,4-difluorophenyl]-N-ethyl-N-methyl-sulfamide] | significant decrease in cell proliferation | – | – | – | – | – | – | – |
| CC1(N)CCN(c2cnc(-c3cccc(Cl)c3Cl)c(N)n2)CC1 [SHP2-inhibitor, 6-(4-diamino-4-methyl-1-piperidinyl)-3-(2,3-dichlorophenyl)-2-pyrazinamine] | significant decrease in cell proliferation | – | – | – | – | – | – | – |
| miR-451a: miR-451a-5p mimic purchased from Life Technologies, transfected into HCT-116 cells; tumor suppressor miRNA (AAACCGUUACCAUUACUGAGUU; listed as RNA, chemistry not given here; listed as Homo sapiens) | – | enhanced the responses to 5-FU | decreased proliferation | slight additive effect with radiation | significant downregulation of all four target genes | decreased proliferation | decreased proliferation | enriched at the RISC |
